Common to all, as to experiment: relative viability (nuclei count vs DMSO), 5 days (fraction); higher = more cells survive
Compound in assay [1]: CS(=O)(=O)c1ccc(C(=O)Nc2ccc(Cl)c(-c3ccccn3)c2)c(Cl)c1 [Vismodegib] + N=C(N)NC(=N)NCCc1ccccc1 [Phenformin] (partner 250 µM)
In outline: (§1)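 Lung cancer cell lines in 1536-well plates were dosed by pin tool the day after seeding, either with one drug alone or with a fixed anchor-drug dose plus five library-drug doses (not always all listed) in √10 steps. After 5 days, cells were fixed and their nuclei stained in one step (final 0.05% Triton X-100, 1% formaldehyde, 1 ug/ml Hoechst), then counted on 4× images. Relative viability is the nuclei count in treated wells divided by that in vehicle wells. Values are medians of duplicate plates.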

Compound in assay [2]: N#CC[C@H](C1CCCC1)n1cc(-c2ncnc3[nH]ccc23)cn1 [Ruxolitinib] + CS(=O)(=O)CCNCc1ccc(-c2ccc3ncnc(Nc4ccc(OCc5cccc(F)c5)c(Cl)c4)c3c2)o1 [Lapatinib] (partner 2 µM)
The procedure, abridged:
as §1

Compound in assay [3]: N#CC[C@H](C1CCCC1)n1cc(-c2ncnc3[nH]ccc23)cn1 [Ruxolitinib] + C[C@@H](Oc1cc(-c2cnn(C3CCNCC3)c2)cnc1N)c1c(Cl)ccc(F)c1Cl [Crizotinib] (partner 1 µM)
In outline:
as §1

Compound in assay [4]: CS(=O)(=O)c1ccc(-c2cnc(N)c(C(=O)Nc3ccccc3)n2)cc1 [VE-821] + COc1cc2c(Oc3ccc(NC(=O)C4(C(=O)Nc5ccc(F)cc5)CC4)cc3F)ccnc2cc1OCCCN1CCOCC1 [Foretinib] (partner 0.25 µM)
In outline:
as §1

In the case of UMC-11, the relative viability in assay [1] (first compound 0.08 µM) is 0.286; in assay [1] (first compound 0.253 µM), 0.311; in assay [1] (first compound 0.8 µM) it was 0.301; in assay [1] (first compound 2.53 µM), 0.283; in assay [1] (first compound 8 µM), 0.284; in assay [2] (first compound 0.08 µM) it was 1.01. The relative viability in assay [2] (first compound 0.253 µM) came to 0.934; in assay [2] (first compound 0.8 µM) it was 1.23; in assay [2] (first compound 2.53 µM) it was 0.998; in assay [2] (first compound 8 µM) it was 1.02; in assay [3] (first compound 0.08 µM), 0.622; in assay [3] (first compound 0.253 µM), 0.616. In addition, the relative viability stood at 0.736 in assay [3] (first compound 0.8 µM); 0.736 in assay [3] (first compound 2.53 µM); 0.668 in assay [3] (first compound 8 µM); 1.09 in assay [4] (first compound 0.08 µM); 1.01 in assay [4] (first compound 0.253 µM); 1.08 in assay [4] (first compound 0.8 µM). For the same cell line, the values for the relative viability in assay [4] (first compound 2.53 µM) and in assay [4] (first compound 8 µM) were 1.06 and 0.553, respectively.

For the origin of these results see the supplement of paper PMC10307832.
